Results on 15 molecules are retold here after patent US11813306B2, “Cyclic tetramer compounds as proprotein convertase subtilisin/kexin type 9 (PCSK9) inhibitors for the treatment of metabolic disorders” (NOVARTIS AG, priority 2018, dated 2023).

In general, IC50 refers to the midpoint of a concentration-inhibition curve. Low values mean inhibition by little substance, high ones a need for much substance.

The experiment has as its target human PCSK9 (Homo sapiens, UniProt Q8NBP7). Put plainly: PCSK9 ligand binding assay (TR-FRET): interference with binding of human PCSK9 to human LDLR. The note with it: for IC50: Human PCSK9 Alexa Fluor 647 / Human LDLR extracellular domain-Europium Kryptate; for Max % inhibition: efficacy (Amax), 100% = 1 uM unlabeled human PCSK9, 0% = DMSO. The gist of the method: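 Read-out was TR-FRET ratio (665 nm over 615 nm, 330 nm excitation) between Alexa Fluor 647-human PCSK9 (16 nM added) and Europium Kryptate-human LDLR ectodomain (4 nM added). Compound and PCSK9 were mixed 30 min before LDLR, then incubated 2 h. Inhibition was normalised to DMSO and unlabelled-PCSK9 controls, giving IC50 and Amax.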
On the technique in general: TR-FRET usually uses a lanthanide donor and a delayed reading to cut background.

Chain of human PCSK9 (Q8NBP7 153-692): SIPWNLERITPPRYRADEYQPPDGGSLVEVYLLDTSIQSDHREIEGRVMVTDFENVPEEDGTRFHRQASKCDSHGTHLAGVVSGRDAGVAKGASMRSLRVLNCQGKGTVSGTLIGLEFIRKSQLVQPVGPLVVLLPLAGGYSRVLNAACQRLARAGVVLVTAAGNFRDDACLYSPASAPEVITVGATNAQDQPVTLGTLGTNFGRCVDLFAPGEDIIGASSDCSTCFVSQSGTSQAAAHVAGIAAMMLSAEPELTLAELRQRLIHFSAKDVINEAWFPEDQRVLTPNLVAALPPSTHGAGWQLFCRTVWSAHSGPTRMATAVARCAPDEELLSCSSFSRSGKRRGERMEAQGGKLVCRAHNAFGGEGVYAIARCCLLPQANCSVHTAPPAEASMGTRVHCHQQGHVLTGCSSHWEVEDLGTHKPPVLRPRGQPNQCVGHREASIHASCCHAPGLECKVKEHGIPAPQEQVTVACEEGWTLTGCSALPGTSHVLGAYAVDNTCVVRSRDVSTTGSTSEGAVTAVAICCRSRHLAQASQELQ
Chain of human PCSK9 (Q8NBP7 31-152 partner limits assumed): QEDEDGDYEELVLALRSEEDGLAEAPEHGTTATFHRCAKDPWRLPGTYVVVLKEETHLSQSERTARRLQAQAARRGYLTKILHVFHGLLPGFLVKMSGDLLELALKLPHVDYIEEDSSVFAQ

For the molecule `C[C@H]1C(=O)N[C@@H](CO)C(=O)N(C)[C@H](Cc2ccc(Cl)cc2)CNC(=O)[C@H](Cc2ccccc2)CC(=O)N1Cc1ccc(Cl)cc1Oc1ccc(-c2cnc(CN3CCCC3)n2C)cc1.Cl` [Compound 89, (2S, 5S, 8R, 12R)-12-benzyl-1-(4-chloro-2-(4-(1-methyl-2-(pyrrolidin-1-ylmethyl)-1H-imidazol-5-yl)phenoxy)benzyl)-8-(4-chlorobenzyl)-5-(hydroxymethyl)-2,7-dimethyl-1,4,7,10-tetraazacyclotetradecane-3,6,11,14-tetraone], the half-maximal inhibitory concentration (IC50) worked out at 1.51 nM and the Max % inhibition worked out at 104.5%.

For the molecule `C[C@H]1C(=O)N[C@@H](CO)C(=O)N[C@@]2(Cc3ccc(Cl)cc3)CCCN(C2)C(=O)[C@H]([C@@H]2CCc3ccccc32)CC(=O)N1Cc1ccc(C(F)(F)F)cc1Oc1ccc(-c2cnc(CN(C)C)n2C)cc1` [Compound 90], the IC50 was determined as 1.71 nM and the Max % inhibition is recorded as 99.2%.

On to `C[C@H]1C(=O)N[C@@H](CO)C(=O)N(C)[C@H](Cc2ccc(Cl)cc2)CN(C)C(=O)[C@H]([C@H]2CCc3ccccc32)CC(=O)N1Cc1ccc(Cl)cc1Oc1ccc(-c2cnc(CN(C)C)n2C)cc1.Cl` [Compound 91, (2S, 5S, 8R, 12S)-1-(4-chloro-2-(4-(2-((dimethylamino)methyl)-1-methyl-1H-imidazol-5-yl)phenoxy)benzyl)-8-(4-chlorobenzyl)-12-((R)-2,3-dihydro-1H-inden-1-yl)-5-(hydroxymethyl)-2,7,10-trimethyl-1,4,7,10-tetraazacyclotetradecane-3,6,11,14-tetraone], for which the IC50 was determined as 1.83 nM and the Max % inhibition is on record as 104.8%.

In the case of `COC[C@@H]1NC(=O)[C@H](C)N(Cc2ccc(Cl)cc2Oc2ccc(-c3cnc(CN4CCCC4)n3C)cc2)C(=O)C[C@@H](Cc2ccccc2)C(=O)NC[C@@H](Cc2ccc(Cl)cc2)N(C)C1=O.Cl` [Compound 92, (2S, 5S, 8R, 12R)-12-benzyl-1-(4-chloro-2-(4-(1-methyl-2-(pyrrolidin-1-ylmethyl)-1H-imidazol-5-yl)phenoxy)benzyl)-8-(4-chlorobenzyl)-5-(methoxymethyl)-2,7-dimethyl-1,4,7,10-tetraazacyclotetradecane-3,6,11,14-tetraone], the IC50 came to 2.37 nM and the Max % inhibition stood at 104.1%.

`C[C@H]1C[C@H]([C@@H]2CC(=O)N(Cc3ccc(Cl)cc3Oc3ccc(-c4cnc(CN5CCCC5)n4C)cc3)[C@@H](C)C(=O)N[C@@H](CO)C(=O)N(C)[C@H](Cc3ccc(Cl)cc3)CN(C)C2=O)c2ccccc21.Cl` [Compound 93, (2S, 5S, 8R, 12S)-1-(4-chloro-2-(4-(1-methyl-2-(pyrrolidin-1-ylmethyl)-1H-imidazol-5-yl)phenoxy)benzyl)-8-(4-chlorobenzyl)-5-(hydroxymethyl)-2,7,10-trimethyl-12-((1R, 3S)-3-methyl-2,3-dihydro-1H-inden-1-yl)-1,4,7,10-tetraazacyclotetradecane-3,6,11,14-tetraone]: the IC50 worked out at 1.4 nM and the Max % inhibition was 103.0%.

In the case of `COC[C@@H]1NC(=O)[C@H](C)N(Cc2ccc(Cl)cc2Oc2ccc(-c3cnc(CN(C)C)n3C)nc2)C(=O)C[C@@H](Cc2ccccn2)C(=O)N2CCC[C@@](Cc3ccc(Cl)cc3)(C2)N(C)C1=O` [Compound 94, (3R,7S,10S,13R)-6-(4-Chloro-2-((6-(2-((dimethylamino)methyl)-1-methyl-1H-imidazol-5-yl)pyridin-3-yl)oxy)benzyl)-13-(4-chlorobenzyl)-10-(methoxymethyl)-7,12-dimethyl-3-(pyridin-2-ylmethyl)-1,6,9,12-tetraazabicyclo[11.3.1]heptadecane-2,5,8,11-tetraone], the IC50 is 0.978 nM and the Max % inhibition worked out at 107.7%.

In the case of `COC[C@@H]1NC(=O)[C@H](C)N(Cc2ccc(Cl)cc2Oc2ccc(-c3cnc(CN(C)C)n3C)cc2)C(=O)C[C@@H]([C@@H]2CCc3ccccc32)C(=O)N2CCC[C@@](Cc3ccc(Cl)cc3)(C2)NC1=O.Cl` [Compound 95, (3S, 7S, 10S, 13R)-6-(4-chloro-2-(4-(2-((dimethylamino)methyl)-1-methyl-1H-imidazol-5-yl)phenoxy)benzyl)-13-(4-chlorobenzyl)-3-((S)-2,3-dihydro-1H-inden-1-yl)-10-(methoxymethyl)-7-methyl-1,6,9,12-tetraazabicyclo[11.3.1]heptadecane-2,5,8,11-tetraone], the IC50 was 1.88 nM and the Max % inhibition is on record as 102.5%.

For the molecule `C[C@@H](O)[C@@H]1NC(=O)[C@H](C)N(Cc2ccc(Cl)cc2Oc2ccc(-c3cnc(CN(C)C)n3C)cc2)C(=O)C[C@@H](CC(F)(F)F)C(=O)N2CCC[C@@](Cc3ccc(Cl)cc3)(C2)NC1=O` [Compound 97, (3S, 7S, 10S, 13R)-6-(4-chloro-2-(4-(2-((dimethylamino)methyl)-1-methyl-1H-imidazol-5-yl)phenoxy)benzyl)-13-(4-chlorobenzyl)-10-((R)-1-hydroxyethyl)-7-methyl-3-(2,2,2-trifluoroethyl)-1,6,9,12-tetraazabicyclo[11.3.1]heptadecane-2,5,8,1-tetraone], the IC50 turned out to be 2.08 nM and the Max % inhibition came to 91.2%.

As for `C[C@H]1C(=O)N[C@@H](CO)C(=O)N[C@@]2(Cc3ccc(Cl)cc3)CCCN(C2)C(=O)[C@H](Cc2ccccc2)CC(=O)N1Cc1c(Cl)cc(Cl)cc1Oc1ccc(-c2cnc(CN(C)C)n2C)cc1` [Compound 98, (3R, 7S, 10S, 13R)-3-benzyl-13-(4-chlorobenzyl)-6-(2,4-dichloro-6-(4-(2-((dimethylamino)methyl)-1-methyl-1H-imidazol-5-yl)phenoxy)benzyl)-10-(hydroxymethyl)-7-methyl-1,6,9,12-tetraazabicyclo+11.3.111-tetraone], the IC50 worked out at 2.41 nM and the Max % inhibition is listed as 108.6%.

As for `C[C@@H]1CC(=O)N(Cc2c(F)cc(Cl)cc2Oc2ccc(-c3cnc(CN(C)C)n3C)cc2)[C@@H](C)C(=O)N[C@@H](CO)C(=O)N(C)[C@@]2(Cc3ccc(Cl)cc3)CCCN(C2)C1=O` [Compound 99, (3R, 7S, 10S, 13R)-6-(4-chloro-2-(4-(2-((dimethylamino)methyl)-1-methyl-1H-imidazol-5-yl)phenoxy)-6-fluorobenzyl)-13-(4-chlorobenzyl)-10-(hydroxymethyl)-3,7,12-trimethyl-1,6,9,12-tetraazabicyclo+11.3.1+heptadecane-2,5,8,11-tetraone], the IC50 amounted to 2.86 nM and the Max % inhibition is 116.6%.

As to `COC[C@@H]1NC(=O)[C@H](C)N(Cc2ccc(Cl)cc2Oc2ccc(-c3cnc(CN4CCCC4)n3C)cc2)C(=O)C[C@@H]([C@H]2CCc3ccccc32)C(=O)N(C)C[C@@H](Cc2ccc(Cl)cc2)N(C)C1=O.Cl` [Compound 101, (2S, 5S, 8R, 12S)-1-(4-chloro-2-(4-(1-methyl-2-(pyrrolidin-1-ylmethyl)-1H-imidazol-5-yl)phenoxy)benzyl)-8-(4-chlorobenzyl)-12-((R)-2,3-dihydro-1H-inden-1-yl)-5-(methoxymethyl)-2,7,10-trimethyl-1,4,7,10-tetraazacyclotetradecane-3,6,11,14-tetraone], the IC50 amounted to 1.94 nM and the Max % inhibition stood at 98.3%.

On to `C[C@H]1C(=O)N[C@@H](CO)C(=O)N(C)[C@H](Cc2ccc(Cl)cc2)CN(C)C(=O)[C@H]([C@H]2COc3ccccc32)CC(=O)N1Cc1ccc(Cl)cc1Oc1ccc(-c2cnc(CN3CCCC3)n2C)cc1.Cl` [Compound 102, (2S, 5S, 8R, 12S)-1-(4-chloro-2-(4-(1-methyl-2-(pyrrolidin-1-ylmethyl)-1H-imidazol-5-yl)phenoxy)benzyl)-8-(4-chlorobenzyl)-12-((R)-2,3-dihydrobenzofuran-3-yl)-5-(hydroxymethyl)-2,7,10-trimethyl-1,4,7,10-tetraazacyclotetradecane-3,6,11,14-tetraone], for which the IC50 amounted to 1.38 nM and the Max % inhibition worked out at 100.8%.

For the molecule `COc1cccc2c1OC[C@@H]2[C@@H]1CC(=O)N(Cc2ccc(Cl)cc2Oc2ccc(-c3cnc(CN4CCCC4)n3C)cc2)[C@@H](C)C(=O)N[C@@H](CO)C(=O)N(C)[C@H](Cc2ccc(Cl)cc2)CN(C)C1=O.Cl` [Compound 103, (2S, 5S, 8R, 12S)-1-(4-chloro-2-(4-(1-methyl-2-(pyrrolidin-1-ylmethyl)-1H-imidazol-5-yl)phenoxy)benzyl)-8-(4-chlorobenzyl)-5-(hydroxymethyl)-12-((R)-7-methoxy-2,3-dihydrobenzofuran-3-yl)-2,7,10-trimethyl-1,4,7,10-tetraazacyclotetradecane-3,6,11,14-tetraone], the IC50 is 2.08 nM and the Max % inhibition is recorded as 98.4%.

Turning to `CCOCCOCCOCc1ncc(-c2ccc(Oc3cc(Cl)ccc3CN3C(=O)N[C@@H](Cc4ccccc4)C(=O)N4CCC[C@@](Cc5ccc(Cl)cc5)(C4)NC(=O)[C@H](CO)NC(=O)[C@@H]3C)cc2)n1C.Cl` [Compound 104], the IC50 came out at 1.84 nM and the Max % inhibition is 69.1%.

Regarding `COC[C@@H]1NC(=O)[C@H](CCF)N(Cc2ccc(Cl)cc2Oc2ccc(-c3cnc(CN(C)C)n3C)cc2)C(=O)C[C@@H](Cc2ccccc2)C(=O)N2CCC[C@@](Cc3ccc(Cl)cc3)(C2)NC1=O.Cl` [Compound 105, (3R,7S,10S,13R)-3-benzyl-6-(4-chloro-2-(4-(2-((dimethylamino)methyl)-1-methyl-1H-imidazol-5-yl)phenoxy)benzyl)-13-(4-chlorobenzyl)-7-(2-fluoroethyl)-10-(methoxymethyl)-1,6,9,12-tetraazabicyclo[11.3.1]heptadecane-2,5,8,11-tetraone hydrochloride], the IC50 is 6.12 nM and the Max % inhibition is 97.0%.
